Columns and labels:
MM1 cells [1] = details: Int. J. Cancer 81, 918-922 (1999), cited from earlier work; for suppressed LPA-induced invasion by: studied by Mukai et al.; for invasion suppressing action on LPA-induced invasion (in words): reported by Mukai et al.
MM1 cells [2] = experiment: Effect on the proliferation of MM1 cells; type: cell-based, rat; details: 12.5 μM or 25 μM cPA, 10% FBS, 24 hours and 72 hours
Procedure: 12.5 μM and 25 μM cPA were added to media containing 10% FBS, and then the cells were cultured under conditions of 37° C. and 5% CO2 for 24 hours and 72 hours. The number of the MM1 cells was counted using a hemocytometer.

MM1 cells [3] = experiment: In vitro invasion assay, LPA-induced invasion of MM1 cells across mesothelial cell monolayer; type: cell-based, rat; details: 25 μM cPA derivative, 25 μM LPA, 20 hours
Procedure: (§1) The abdomen of a male DONRYU rat (300 g, NIPPON BIO-SUPP. CENTER) was opened aseptically. The thus obtained mesenterium was treated with 0.25% trypsin at 37° C. for 15 minutes, filtrated with a 150 μm stainless mesh, and then centrifuged to collect mesothelial cells. The cells were cultured under conditions of 37° C. and 5% CO2 in a medium which was obtained by adding 10% FBS to Eagle's MEMI (Nissui) supplemented with Eagle's MEM amino acid vitamin medium (Nissui) in a volume twice as great as that of the MEMI. A mesothelial cell monolayer which had reached a confluent density after 1 week of culturing was used for invasion assay.
(§2) The MM1 cells, which are highly invasive clones of rat ascites hepatoma cells (AH-130), were established by Mukai et al., (Int. J. Cancer : 81, 918-922 (1999)), and was cultured under the same conditions as those for mesothelial cells.
(§3) In vitro invasion assay was developed by Akedo et al (Akedo, H et al., Cancer Res. 46, 2416-2422 (1986)). MM1 cells were multi-layer-cultured on the mesothelial cell layer, which had been grown to reach a confluent density, in the presence of 10% FBS or 25 μM LPA (SIGMA). 25 μM cPA was then added. The cells were cultured under conditions of 37° C. and 5% CO2 for 20 hours, and then fixed with 10% formalin. The number of colonies of MM1 cells that had invaded was counted under a phase-contrast microscope (FIG. 3).
cPA and LPA were ice-cooled in PBS containing 0.1% fatty-acid free BSA (SIGMA), ultrasonicated, emulsified, stored at −20° C., and then used.
0.5 μM, 1 μM and 10 μM carba-cPA were added to MM1 cells, and then in vitro invasion assay was performed similarly to (1-1) in the presence of 25 μM LPA.
The following reagents were respectively added to an in vitro invasion assay system so as to examine their effects on MM1 cell invasion in the presence of 25 μM LPA: Forskolin (Wako) which directly activates adenylate cyclase (cAMP synthase); cholera toxin (CTX) (GIBCO BRL) which prevent the deactivation of G protein (Gs) which activates adenylate cyclase; Bt2cAMP (nacalai tesque) which can pass through the membrane and functions in a manner similar to that of cAMP when it enters the cell; or isobutylmethylxanthine (IBMX, 3-isobutyl-1-methylxanthine) (SIGMA) which inhibits phosphodiesterase (cAMP degrading enzyme).

MM1 cells [4] = experiment: In vitro invasion assay, FBS-induced invasion of MM1 cells; type: cell-based, rat; details: 25 μM cPA derivative, 10% FBS, 20 hours
Procedure: as §1, §2
as §3, with “3). […]” for “3).”

HT-1080 cells = experiment: In vitro invasion assay of HT-1080 cells in the absence of serum/LPA; type: cell-based, human
Procedure: HT-1080 cells were cultured under conditions of 37° C. and 5% CO2 in Eagle's MEMI (Nissui) supplemented with a one-hundredth volume of nonessential amino acid solution (GIBCO BRL) and 10% FBS. […] 4 hours later, the cells were fixed, and then the cells that had invaded were counted.

MM1 cells [5] = experiment: Measurement of intracellular cAMP in MM1 cells; type: cell-based, rat; details: 25 μM cPA or 10 μM Forskolin, pretreated with 1 mM IBMX
Procedure: After a certain time period, 10% ice-cooled TCA was added to stop the reaction. The centrifuged supernatant was washed 4 times with water-saturated diethylether to remove TCA, and then placed under nitrogen gas flow at 60° C. to remove the solvent completely. cAMP in the resultant sample was measured using a cyclic AMP [^3H] assay system (Amersham).

| Compound | suppressed LPA-induced invasion by (MM1 cells [1]) | effect on MM1 cell proliferation (in words) (MM1 cells [2]) | also measured |
| --- | --- | --- | --- |
| CCCCCCCCCCCCCCCCCCCC(=O)OCC1COP(=O)([O-])O1.[Na+] (stereo not shown) [Ara-cPA] | around 50% |  |  |
| CCCCCCCCCCCC(=O)OCC1COP(=O)([O-])O1.[Na+] (stereo not shown) [Lau-cPA] | around 50% |  |  |
| CCCCCCCC/C=C\CCCCCCCC(=O)OC[C@@H]1COP(=O)(O)O1 [Ole-cPA] | approximately 60% | proliferation suppressing activity | invasion suppressing action on LPA-induced invasion (in words) (MM1 cells [1]): weak |
| CCCCCC[C@@H]1C[C@@H]1CCCCCCCC(=O)OC[C@@H]1COP(=O)(O)O1 [PHYLPA] | around 50% |  |  |
| CCC=CCC=CCC=CCC=CCC=CCCCC(=O)OCC1COP(=O)(O)O1 (stereo not shown) [cPA-12] |  |  | suppression of LPA-induced invasion (in words) (MM1 cells [3]): not suppressed; suppression of FBS-induced invasion (MM1 cells [4]): approximately 70% |
| CCCCCC/C=C\CCCCCCCC(=O)OCC1COP(=O)([O-])O1.[Na+] (stereo not shown) [ΔPal-cPA] | around 50% | proliferation suppressing activity | invasion suppressing action on LPA-induced invasion (in words) (MM1 cells [1]): weak |
| carba-Pal-cPA [cPA-18] |  | no effect on MM1 cell proliferation | invasion suppressing activity on HT-1080 cells (in words) (HT-1080 cells; 10 μM cPA, absence of serum/LPA, 4 hours): invasion suppressing activity on the cells at the same strength as or a level stronger than that exhibited by natural cPA; change of intracellular cAMP concentration (in words) (MM1 cells [5]; listed as Carba-Pal-cPA): a similar result was obtained; change of intracellular cAMP concentration (in words) (MM1 cells [5]; listed as carba-Pal-cPA): the change of cAMP concentration was not observed |
| lysophosphatidic acid [LPA, reference compound] |  |  | promotion of HT-1080 cell invasion (in words) (HT-1080 cells; 25 μM LPA added): the invasion was no longer promoted |

Reference: patent US20040214799A1, “Cancerous metastasis inhibitors containing carbacyclic phosphatidic acid derivatives” (priority 2001, published 2004)
